Assay results taken from publication PMC6348443 (Journal of Medicinal Chemistry, 2018).
Structures can show the parent of a compound that is named as a salt. Where two headings read alike, the source gives them in different places.

Assays:
male CD1 mice = assay: acetic acid-induced writhing assay after sc administration; format: in vivo, mouse; conditions: for ED50: Mus musculus, 0.5 h, read-out: ED50 (95% CI), mice, sc, inhibition of writhing 30 min after drug administration; for ED50 (95% CI): mice, inhibition of writhing 30 min after drug administration
Method: Solutions of test compounds were prepared in sterile physiological 0.9% saline and further diluted to working doses in saline solution. Test compounds or saline (control) were administered by sc route in a volume of 10 μL/1 g of body weight. All doses are expressed in terms of salts. Separate groups of mice received the respective dose of compound, and individual mice were only used once for behavioral testing.
Writhing was induced in male CD1 mice by ip injection of a 0.6% acetic acid aqueous solution as described previously.[48],[62] Groups of mice were administered sc different doses of test compound or saline (control), and 5 min prior to testing (25 min after drug or saline), each animal received an ip injection of acetic acid solution. Each mouse was placed in individual transparent Plexiglas chambers, and the number of writhes was counted during a 10 min observation period. […] For the antagonism study, naloxone methiodide was sc co-administered with the respective opioid agonist, and writhing was assessed as described above.
(§1) Data were analyzed and graphically processed using the GraphPad Prism 5.0 Software (GraphPad Prism Software Inc., San Diego, CA). For in vitro assays, inhibition constant (Ki in nM), potency (EC50 in nM), and efficacy (% stimulation) values were determined from concentration–response curves by nonlinear regression analysis. The Ki values were determined by the method of Cheng and Prusoff.[66] In the [^35S]GTPγS binding assays, efficacy was determined relative to the reference full opioid agonists, DAMGO (MOR), DPDPE (DOR), and U69,593 (KOR). In vitro data are presented as mean ± SEM of three to four independent experiments each performed in duplicate. […] Each experimental group included six to seven mice. Data were statistically evaluated using one-way ANOVA with Tukey’s post hoc test for multiple comparisons with significance set at P < 0.05.

KOR [1] = molecular target: T1, KOR (Homo sapiens, UniProt P41145); assay: [35S]GTPγS binding assay, CHO-hKOR membranes; format: biochemical; conditions: for EC50: [35S]GTPγS, CHO human KOR membranes, read-out: KOR EC50; for Emax: relative to reference full agonist U69,593, read-out: KOR % stim.; for functional profile at KOR (full/partial agonist): partial agonist <85% of the response to U69,593
T1 construct: host or cells: CHO (CHO-hKOR)
Method: (§2) Efficacies are presented as percentage stimulation relative to the standard full agonists, [D-Ala^2,N-Me-Phe4,Gly-ol^5]enkephalin (DAMGO for MOR),[53] [D-Pen^2,D-Pen^5]enkephalin (DPDPE for DOR)[54] and N-methyl-2-phenyl-N-[(5R,7S,8S)-7-(pyrrolidin-1-yl)-1-oxaspiro[4.5]dec-8-yl]acetamide (U69,593 for KOR).[55]
(§3) Membranes from CHO cells expressing human opioid receptors were prepared in 50 mM Tris-HCl buffer (pH 7.7) according to a previously described procedure.[64] Cells expressing human opioid receptors grown at confluence were removed from the culture plates by scraping, homogenized in 50 mM Tris buffer (pH 7.7), using a Polytron homogenizer, then centrifuged once and washed by an additional centrifugation at 27 000g for 15 min, at 4 °C. The final pellet was resuspended in Tris buffer and stored at −80 °C until use. Protein content of brain and cell membrane preparation homogenates was determined by the method of Bradford using bovine serum albumin as the standard.[65]
(§4) Binding of [^35S]GTPγS to membranes from CHO cells stably expressing the human opioid receptors was conducted according to the published procedures.[49],[64] Cell membranes (5–10 μg) in 20 mM HEPES, 10 mM MgCl2, and 100 mM NaCl (pH 7.4) were incubated with 0.05 nM [^35S]GTPγS, 10 μM GDP, and various concentrations of test compound in a final volume of 1 mL, for 60 min at 25 °C. Nonspecific binding was determined using 10 μM GTPγS, and the basal binding was determined in the absence of test ligand. Samples are filtered over glass Whatman glass GF/B fiber filters and counted as described for binding assays. All experiments were performed in duplicate and repeated at least three times.
as §1

DOR [2] = molecular target: T2, DOR (Homo sapiens, UniProt P41143); assay: [35S]GTPγS binding assay, CHO-hDOR membranes; format: biochemical; conditions: for EC50: [35S]GTPγS, CHO human DOR membranes; for Emax: relative to reference full agonist DPDPE, read-out: DOR % stim.; for increased agonist potency at DOR vs MOR: [35S]GTPγS EC50
T2 construct: host or cells: CHO (CHO-hDOR)
Method: as §2, §3, §4, §1

MOR [3] = molecular target: T3, MOR (Homo sapiens, UniProt P35372); assay: [35S]GTPγS binding assay, CHO-hMOR membranes; format: biochemical; conditions: for Emax: relative to reference full agonist DAMGO, read-out: MOR % stim.
T3 construct: host or cells: CHO (CHO-hMOR)
Method: as §2, §3, §4, §1

DOR [4] = molecular target: T4, DOR (Rattus norvegicus, UniProt P33533); assay: competition radioligand binding, rat brain membranes, [3H][Ile5,6]deltorphin II; conditions: rat brain membranes; read-out: opioid receptor binding Ki DOR
T4 construct: Membranes were prepared from Sprague-Dawley rat brains or guinea-pig brains according to the described procedures; tissue Labortierkunde und Laborgenetik, Medizinische Universität Wien; host or cells: Sprague-Dawley rat brain without cerebella
Method: (§5) Competition binding assays using rat brain (MOR and DOR) and guinea-pig brain (KOR) membranes (Table 1) were performed according to published procedures.[44],[49] […] In addition, we have assessed binding at the human opioid receptors stably transfected in Chinese hamster ovary (CHO) cells (Table S1).
(§6) Membranes were prepared from Sprague-Dawley rat brains or guinea-pig brains according to the described procedures.[44],[45] Brains without cerebella were homogenized on ice in 5 vol/wt of ice-cold 50 mM Tris-HCl buffer (pH 7.4) and diluted in 30 vol/wt of the same buffer. After centrifugation at 40 000g for 20 min at 4 °C, the pellets were resuspended in 30 vol/wt of 50 mM Tris-HCl buffer (pH 7.4) and incubated at 37 °C for 30 min. The centrifugation step described above was repeated, and the final pellets were resuspended in 5 vol/wt of 50 mM Tris-HCl buffer (pH 7.4) containing 0.32 M sucrose and stored at −80 °C until use.
(§7) Rat brain membranes were incubated with either [^3H]DAMGO (1 nM, 45 min, 35 °C) or [^3H][Ile^5,6]deltorphin II (0.5 nM, 45 min, 35 °C) for labeling MOR or DOR receptors, respectively. Guinea-pig brain membranes were incubated with [^3H]U69,593 (1 nM, 30 min, 30 °C) for labeling KOR. Binding assays with CHO cell membranes were conducted at 25 °C for 60 min using [^3H]DAMGO (1 nM) or [^3H]diprenorphine (0.2 nM) for labeling MOR or DOR, respectively. Nonspecific binding was determined using 10 μM naloxone (rodent brain) or 1–10 μM of the unlabeled counterpart of each radioligand (CHO cells). Reactions were terminated by rapid filtration through Whatman glass fiber GF/C filters. Filters were washed three times with 5 mL of ice-cold 50 mM Tris-HCl buffer (pH 7.4) using a Brandel M24R cell harvester (Gaithersburg, MD). Radioactivity retained on the filters was counted by liquid scintillation counting using a Beckman Coulter LS6500 (Beckman Coulter Inc., Fullerton, CA). All binding experiments were performed in duplicate and repeated at least three times.
as §1

KOR [5] = molecular target: T5, KOR (Cavia porcellus, UniProt P41144); assay: competition radioligand binding, guinea-pig brain membranes, [3H]U69,593; conditions: guinea-pig brain membranes; read-out: opioid receptor binding Ki KOR
T5 construct: Membranes were prepared from Sprague-Dawley rat brains or guinea-pig brains according to the described procedures; tissue Labortierkunde und Laborgenetik, Medizinische Universität Wien; host or cells: guinea-pig brain without cerebella
Method: as §5, §6, §7, §1

MOR [6] = molecular target: T6, MOR (Rattus norvegicus, UniProt P33535); assay: competition radioligand binding, rat brain membranes, [3H]DAMGO; conditions: rat brain membranes; read-out: opioid receptor binding Ki MOR
T6 construct: Membranes were prepared from Sprague-Dawley rat brains or guinea-pig brains according to the described procedures; tissue Labortierkunde und Laborgenetik, Medizinische Universität Wien; host or cells: Sprague-Dawley rat brain without cerebella
Method: as §5, §6, §7, §1

[7] = [35S]GTPγS, CHO human MOR membranes, read-out: MOR EC50

SMILES | ED50 (male CD1 mice) [mg/kg] | EC50 (KOR [1]) [nM] | Emax (KOR [1]) [%] | EC50 (DOR [2]) [nM] | Emax (DOR [2]) [%] | EC50 (MOR [3]; [7]) [nM] | Emax (MOR [3]) [%] | functional profile at KOR (full/partial agonist) (KOR [1]) | Ki (DOR [4]) [nM] | Ki (KOR [5]) [nM] | Ki (MOR [6]) [nM] | increased agonist potency at DOR vs MOR (DOR [2]) | ED50 (95% CI) (male CD1 mice) | EC50 (MOR [3]) [nM]
CO[C@@]12CCC(=O)[C@@H]3Oc4c(O)ccc5c4[C@@]31CCN(C)[C@@H]2C5 [Compound 1, 14-O-methyloxymorphone, reference compound] | 0.00326 | 116 ± 31 | 77 ± 5 | 37.3 ± 8.5 | 106 ± 1 | – | – | – | – | – | – | – | – | –
CN1CC[C@]23c4c5ccc(O)c4O[C@H]2[C@@H](NCC(=O)O)CC[C@@]3(OCCCc2ccccc2)[C@H]1C5 [Compound 5a] | 0.0361 | – | – | – | – | – | – | – | – | – | – | – | – | –
CN1CC[C@]23c4c5ccc(O)c4O[C@H]2[C@H](NCC(=O)O)CC[C@@]3(OCCCc2ccccc2)[C@H]1C5 [Compound 5b] | 0.0416 | – | – | – | – | – | – | – | – | – | – | – | – | –
CO[C@@]12CC[C@H](N[C@@H](CO)C(=O)O)[C@@H]3Oc4c(O)ccc5c4[C@@]31CCN(C)[C@@H]2C5 [Compound 6a, (2S)-2-[(4,5α-Epoxy-3-hydroxy-14β-methoxy-17-methylmorphinan-6α-yl)amino]-3-hydroxypropionic Acid Dihydrochloride] | 0.0321 | 1210 ± 200 | 44 ± 5.2 | 13.9 ± 1.5 | 101 ± 2 | 1.6 ± 0.59 | 87 ± 5 | – | – | – | – | – | – | –
CO[C@@]12CC[C@@H](N[C@@H](CO)C(=O)O)[C@@H]3Oc4c(O)ccc5c4[C@@]31CCN(C)[C@@H]2C5 [Compound 6b, (2S)-2-[(4,5α-Epoxy-3-hydroxy-14β-methoxy-17-methylmorphinan-6β-yl)amino]-3-hydroxypropionic Acid Dihydrochloride] | – | 201 ± 116 | 88 ± 2 | 6.98 ± 4.24 | 98 ± 1 | 3.56 ± 0.76 | 101 ± 9 | full agonists | – | – | – | – | – | –
CO[C@@]12CC[C@H](N[C@H](C(=O)O)C(C)C)[C@@H]3Oc4c(O)ccc5c4[C@@]31CCN(C)[C@@H]2C5 [Compound 7a, (2S)-2-[(4,5α-Epoxy-3-hydroxy-14β-methoxy-17-methylmorphinan-6α-yl)amino]-3-methylbutyric Acid Dihydrochloride] | – | 462 ± 126 | 51 ± 0.5 | 33.8 ± 8.9 | 91 ± 2 | 10.5 ± 4 | 95 ± 8 | partial agonist | 3.91 ± 0.3 | 325 ± 19 | 3.16 ± 0.25 | – | – | –
CO[C@@]12CC[C@@H](N[C@@H](Cc3ccc(O)cc3)C(=O)O)[C@@H]3Oc4c(O)ccc5c4[C@@]31CCN(C)[C@@H]2C5.Cl.Cl [Compound 9b, (2S)-2-[(4,5α-Epoxy-3-hydroxy-14β-methoxy-17-methylmorphinan-6β-yl)amino]-3-(4-hydroxyphenyl)propionic Acid Dihydrochloride] | – | 774 ± 57 | 60 ± 3 | 6.23 ± 1.03 | 95 ± 0.8 | 24.7 ± 9.8 | 93 ± 7 | – | 3.89 ± 0.64 | 186 ± 33 | 3.2 ± 0.55 | 2–4 times | – | –
CO[C@@]12CC[C@H](N[C@@H](CC(N)=O)C(=O)O)[C@@H]3Oc4c(O)ccc5c4[C@@]31CCN(C)[C@@H]2C5 [Compound 11a, (2S)-3-Carbamoyl-2-[(4,5α-epoxy-3-hydroxy-14β-methoxy-17-methylmorphinan-6α-yl)amino]propionic Acid Dihydrochloride] | < 0.02 | 81.7 ± 12.3 | 67 ± 12 | 9.78 ± 3.32 | 106 ± 6 | 0.83 ± 0.17 | 99 ± 0.2 | – | – | – | – | – | 15.2 (6.89–33.3) μg/kg | < 1
CO[C@@]12CC[C@@H](N[C@@H](CC(N)=O)C(=O)O)[C@@H]3Oc4c(O)ccc5c4[C@@]31CCN(C)[C@@H]2C5 [Compound 11b, (2S)-3-Carbamoyl-2-[(4,5α-epoxy-3-hydroxy-14β-methoxy-17-methylmorphinan-6β-yl)amino]propionic Acid Dihydrochloride] | – | 923 ± 11 | 71 ± 9 | 3.18 ± 0.93 | 88 ± 5 | 2.04 ± 0.44 | 96 ± 14 | – | – | – | – | – | – | –
CO[C@@]12CC[C@H](N[C@@H](CCC(N)=O)C(=O)O)[C@@H]3Oc4c(O)ccc5c4[C@@]31CCN(C)[C@@H]2C5 [Compound 12a, (2S)-4-Carbamoyl-2-[(4,5α-epoxy-3-hydroxy-14β-methoxy-17-methylmorphinan-6α-yl)amino]butanoic Acid Dihydrochloride] | – | 185 ± 30 | 70 ± 3 | 7.8 ± 3.61 | 104 ± 10 | 2.27 ± 0.11 | 90 ± 8 | – | – | – | – | – | – | –
CO[C@@]12CC[C@@H](N[C@@H](CCC(N)=O)C(=O)O)[C@@H]3Oc4c(O)ccc5c4[C@@]31CCN(C)[C@@H]2C5.Cl.Cl [Compound 12b, (2S)-4-Carbamoyl-2-[(4,5α-epoxy-3-hydroxy-14β-methoxy-17-methylmorphinan-6β-yl)amino]butanoic Acid Dihydrochloride] | – | 1410 ± 418 | 63 ± 17 | 3.96 ± 0.07 | 103 ± 9 | 9.54 ± 1.15 | 98 ± 4 | – | – | – | – | 2–4 times | – | –
CN1CC[C@]23c4c5ccc(O)c4O[C@H]2[C@@H](O)C=C[C@H]3[C@H]1C5 [morphine, reference compound] | – | – | – | – | – | – | – | – | – | – | – | – | 437 (249–768) μg/kg | –
